Assay results published in patent US20080161232A1, “C5a Receptor Antagonist” (JERINI AG, priority 2005, published 2008).
Starred links: 1 amine or outer side, 2 acyl side, 3 side chain; linkers in the order of their positions; H or OH if unused. Positions of bridges follow the written chain, without caps; N, C: chain ends. Non-standard residues stand in square brackets, D forms with d. Residues, ends and D or L forms follow the SMILES beside them. ξ: configuration not given here. *: point of attachment. Dihydroorotyl(S) = O=C1C[C@@H](C(=O)*)NC(=O)N1; dβ3hPhg = O=C(C[C@H](N[*:1])c1ccccc1)[*:2]; Decanoyl(3,6,9-trioxa) = COCCOCCOCC(=O)*; Phe(3-Cl) = N[C@@H](Cc1cccc(Cl)c1)C(=O)O; NMe2Phe = CN(C)[C@@H](Cc1ccccc1)C(=O)*; Phe(4-F) = N[C@@H](Cc1ccc(F)cc1)C(=O)O; X11 = N=C(N)N[C@@H](Cc1ccccc1)C(=O)*; Bta = N[C@@H](Cc1csc2ccccc12)C(=O)O; Morpholinoacetyl = O=C(CN1CCOCC1)*; Hyp = O=C(O)[C@@H]1C[C@@H](O)CN1; d(hLeu) = CC(C)CC[C@@H](N)C(=O)O; ξNip = O=C(C1CCCN([*:1])C1)[*:2]; Cit = NC(=O)NCCC[C@H](N)C(=O)O; dCha = N[C@H](CC1CCCCC1)C(=O)O; Methoxyoxalyl = COC(=O)C(=O)*; NHCH2CH(OH)CH2OH = OCC(O)CN*; Nicotinoyl = O=C(c1cccnc1)*; Morpholide = C1CN(*)CCO1; Nle = CCCC[C@H](N)C(=O)O; Orn = NCCC[C@H](N)C(=O)O; CO = O=C([*:1])[*:2]; βAla = NCCC(=O)O

What follows are compounds tested against T1, human C5aR(CD88) (Homo sapiens, UniProt P21730) (assay: Determination of the IC50 value in an enzyme release assay (functional assay, antagonistic activity)). Conditions: antagonistic activity; IC50 group in enzyme release assay, RBL cells expressing human C5aR(CD88); read-out: activity (group).
T1 construct: expressed in transfected cells; host or cells: rat basophilic leukemia cells (RBL)
T1 sequence (P21730 1-350): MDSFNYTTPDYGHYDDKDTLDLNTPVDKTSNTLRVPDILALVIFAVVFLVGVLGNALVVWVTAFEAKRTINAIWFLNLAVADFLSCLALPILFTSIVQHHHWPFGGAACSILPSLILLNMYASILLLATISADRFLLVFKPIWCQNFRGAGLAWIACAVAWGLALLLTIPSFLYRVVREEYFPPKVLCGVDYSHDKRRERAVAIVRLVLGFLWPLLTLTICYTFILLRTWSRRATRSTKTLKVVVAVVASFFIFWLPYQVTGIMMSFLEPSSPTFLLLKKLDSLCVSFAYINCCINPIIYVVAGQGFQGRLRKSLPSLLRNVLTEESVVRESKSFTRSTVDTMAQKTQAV
Assay type: cell-based

`O=C(N[C@@H](Cc1ccccc1)C(=O)N[C@H]1CCCNC(=O)[C@H](Cc2ccccc2)NC(=O)[C@H](Cc2c[nH]c3ccccc23)NC(=O)[C@@H](CC2CCCCC2)NC(=O)[C@@H]2C[C@@H](O)CN2C1=O)c1cccnc1` [Compound 326, Fbn-Phe-[Orn-Hyp-cha-Trp-Phe]] (Nicotinoyl-F[Orn][Hyp][dCha]WF; lactam 2-C) and `O=C(NCC(O)CO)N[C@@H](Cc1ccccc1)C(=O)N[C@H]1CCCNC(=O)[C@H](Cc2ccccc2)NC(=O)[C@H](Cc2c[nH]c3ccccc23)NC(=O)[C@@H](CC2CCCCC2)NC(=O)[C@@H]2C[C@@H](O)CN2C1=O` (stereo partly drawn) [Compound 336, Fhb-[Phe-Orn-Hyp-cha-Trp-Phe]] ({NHCH2CH(OH)CH2OH-CO}-F[Orn][Hyp][dCha]WF; lactam 2-C) fall in the same range of IC50: 50 to 200 nM for the first, 50 to 200 nM for the second.

`CCCC[C@@H]1NC(=O)[C@H](Cc2c[nH]c3ccccc23)NC(=O)[C@@H](CC2CCCCC2)NC(=O)[C@@H]2CCCN2C(=O)[C@@H](NC(=O)[C@H](Cc2ccccc2)NC(=O)c2cccnc2)CCCNC1=O` [Compound 327, Fbn-Phe-[Orn-Pro-cha-Trp-Nle]] (Nicotinoyl-F[Orn]P[dCha]W[Nle]; lactam 2-C) and `CCCC[C@@H]1NC(=O)[C@H](Cc2c[nH]c3ccccc23)NC(=O)[C@@H](CC2CCCCC2)NC(=O)[C@@H]2CCCN2C(=O)[C@@H](NC(=O)[C@H](Cc2ccccc2)NC(=O)N2CCOCC2)CCCNC1=O` [Compound 330, Fbo-Phe-[Orn-Pro-cha-Trp-Nle]] ({Morpholide-CO}-F[Orn]P[dCha]W[Nle]; lactam 2-C) fall in the same range of IC50: 50 to 200 nM for the first, 50 to 200 nM for the second.

First: CCCC[C@@H]1NC(=O)[C@H](Cc2c[nH]c3ccccc23)NC(=O)[C@@H](CC2CCCCC2)NC(=O)[C@@H]2CCCN2C(=O)[C@@H](NC(=O)[C@H](Cc2ccccc2)NC(=O)c2cccnc2)CCCNC1=O [Compound 328, Fbn-Phe-[Orn-Pro-cha-Trp-Nle]] (Nicotinoyl-F[Orn]P[dCha]W[Nle]; lactam 2-C)
Second: CCCC[C@@H]1NC(=O)[C@H](Cc2c[nH]c3ccccc23)NC(=O)[C@@H](CC2CCCCC2)NC(=O)[C@@H]2CCCN2C(=O)[C@@H](NC(=O)[C@H](Cc2ccccc2)N(C)C)CCCNC1=O [Compound 331, Fbp-[Orn-Pro-cha-Trp-Nle]] (NMe2Phe-[Orn]P[dCha]W[Nle]; lactam 1-C)
The IC50 of the first is lower: 10 to 20 nM for the first, 50 to 200 nM for the second.

`CC(C)CC[C@@H](NC(=O)[C@@H]1CCCN1C(=O)[C@H](CCCNC(N)=O)NC(=O)[C@H](Cc1ccccc1)NC(=O)c1cccnc1)C(=O)N[C@@H](Cc1csc2ccccc12)C(=O)N[C@@H](Cc1ccccc1)C(N)=O` [Compound 329, Fbn-Phe-Cit-Pro-hle-Bta-Phe-NH2] (Nicotinoyl-F[Cit]P[d(hLeu)][Bta]F-NH2) and `CC(C)CC[C@@H](NC(=O)[C@@H]1CCCN1C(=O)[C@H](CCCNC(N)=O)NC(=O)[C@H](Cc1ccccc1)NC(=O)C1CCCNC1)C(=O)N[C@@H](Cc1csc2ccccc12)C(=O)N[C@@H](Cc1ccccc1)C(N)=O` (stereo partly drawn) [Compound 346, H-Nip-Phe-Cit-Pro-hle-Bta-Phe-NH2] (ξNip-F[Cit]P[d(hLeu)][Bta]F-NH2) fall in the same range of IC50: 50 to 200 nM for the first, 50 to 200 nM for the second.

`O=C(N[C@@H](Cc1ccccc1)C(=O)N[C@H]1CCCNC(=O)[C@H](Cc2ccccc2)NC(=O)[C@H](Cc2c[nH]c3ccccc23)NC(=O)[C@@H](CC2CCCCC2)NC(=O)[C@@H]2C[C@@H](O)CN2C1=O)C1CCCNC1` (stereo partly drawn) [Compound 332, Fci-[Phe-Orn-Hyp-cha-Trp-Phe]] (ξNip-F[Orn][Hyp][dCha]WF; lactam 2-C) and `O=C(CN1CCOCC1)N[C@@H](Cc1ccccc1)C(=O)N[C@H]1CCCNC(=O)[C@H](Cc2ccccc2)NC(=O)[C@H](Cc2c[nH]c3ccccc23)NC(=O)[C@@H](CC2CCCCC2)NC(=O)[C@@H]2C[C@@H](O)CN2C1=O` [Compound 335, Fha-Phe-[Orn-Hyp-cha-Trp-Phe]] (Morpholinoacetyl-F[Orn][Hyp][dCha]WF; lactam 2-C) fall in the same range of IC50: 50 to 200 nM for the first, 50 to 200 nM for the second.

`CCCC[C@@H]1NC(=O)[C@H](Cc2c[nH]c3ccccc23)NC(=O)[C@@H](CC2CCCCC2)NC(=O)[C@@H]2CCCN2C(=O)[C@@H](NC(=O)[C@H](Cc2ccccc2)NC(=O)CON=C[C@H](O)[C@@H](O)[C@H](O)[C@H](O)CO)CCCNC1=O` [Compound 333, Fck-[Phe-Orn-Pro-cha-Trp-Nle]] and `COCCOCCOCC(=O)N[C@@H](Cc1ccccc1)C(=O)N[C@H]1CCCNC(=O)[C@H](Cc2ccccc2)NC(=O)[C@H](Cc2c[nH]c3ccccc23)NC(=O)[C@@H](CC2CCCCC2)NC(=O)[C@@H]2C[C@@H](O)CN2C1=O` [Compound 337, Fhi-Phe-[Orn-Hyp-cha-Trp-Phe]] ({Decanoyl(3,6,9-trioxa)}-F[Orn][Hyp][dCha]WF; lactam 2-C) fall in the same range of IC50: 50 to 200 nM for the first, 50 to 200 nM for the second.

`CCCC[C@@H]1NC(=O)[C@H](Cc2ccc(F)cc2)NC(=O)[C@@H](CCC(C)C)NC(=O)[C@@H]2CCCN2C(=O)[C@@H](NC(=O)[C@H](Cc2ccccc2)NC(=N)N)CCCNC1=O` [Compound 338, Fhu-Phe-[Orn-Pro-hle-Pff-Nle]] (X11-[Orn]P[d(hLeu)][Phe(4-F)][Nle]; lactam 1-C) and `CCCC[C@@H]1NC(=O)[C@H](Cc2ccc(F)cc2)NC(=O)[C@@H](CCC(C)C)NC(=O)[C@@H]2CCCN2C(=O)[C@@H](NC(=O)[C@H](Cc2ccccc2)NC(=O)CCN)CCCNC1=O` [Compound 343, H-Bal-Phe-[Orn-Pro-hle-Pff-Nle]] (H-[βAla]F[Orn]P[d(hLeu)][Phe(4-F)][Nle]; lactam 3-C) fall in the same range of IC50: 50 to 200 nM for the first, 50 to 200 nM for the second.

`N=C(N)N[C@@H](Cc1ccccc1)C(=O)N[C@@H](CCCN)C(=O)N1CCC[C@H]1C(=O)N[C@H](CC1CCCCC1)C(=O)N[C@@H](Cc1csc2ccccc12)C(=O)N[C@@H](Cc1ccccc1)C(N)=O` [Compound 339, Fhu-Phe-Orn-Pro-cha-Bta-Phe-NH2] (X11-[Orn]P[dCha][Bta]F-NH2) and `NCCC[C@H](NC(=O)[C@H](Cc1ccccc1)NC(=O)CN)C(=O)N1CCC[C@H]1C(=O)N[C@H](CC1CCCCC1)C(=O)N[C@@H](Cc1csc2ccccc12)C(=O)N[C@@H](Cc1ccccc1)C(N)=O` [Compound 345, H-Gly-Phe-Orn-Pro-cha-Bta-Phe-NH2] (H-GF[Orn]P[dCha][Bta]F-NH2) fall in the same range of IC50: 50 to 200 nM for the first, 50 to 200 nM for the second.

First: COC(=O)C(=O)N[C@@H](Cc1ccccc1)C(=O)N[C@@H](CCCN)C(=O)N1CCC[C@H]1C(=O)N[C@H](CC1CCCCC1)C(=O)N[C@@H](Cc1csc2ccccc12)C(=O)N[C@@H](Cc1ccccc1)C(N)=O [Compound 340, Fid-Phe-Orn-Pro-cha-Bta-Phe-NH2] (Methoxyoxalyl-F[Orn]P[dCha][Bta]F-NH2)
Second: CC(C)CC[C@@H](NC(=O)[C@@H]1CCCN1C(=O)[C@H](CCCN)NC(=O)[C@H](Cc1ccccc1)NC(=O)[C@@H]1CC(=O)NC(=O)N1)C(=O)N[C@@H](Cc1csc2ccccc12)C(=O)N[C@@H](Cc1ccccc1)C(N)=O [Compound 350, Hoo-Phe-Orn-Pro-hle-Bta-Phe-NH2] ({Dihydroorotyl(S)}-F[Orn]P[d(hLeu)][Bta]F-NH2)
The IC50 of the first is higher: 50 to 200 nM for the first, 20 to 50 nM for the second. The second is the more potent here.

`CCCC[C@@H]1NC(=O)[C@H](Cc2c[nH]c3ccccc23)NC(=O)[C@@H](CCC(C)C)NC(=O)[C@@H]2C[C@@H](O)CN2C(=O)[C@@H](NC(=O)[C@H](Cc2ccccc2)NC(=O)CCN)CCCNC1=O` [Compound 342, H-Bal-Phe-[Orn-Hyp-hle-Trp-Nle]] (H-[βAla]F[Orn][Hyp][d(hLeu)]W[Nle]; lactam 3-C) and `CCCC[C@@H]1NC(=O)[C@H](Cc2c[nH]c3ccccc23)NC(=O)[C@@H](CCC(C)C)NC(=O)[C@@H]2C[C@@H](O)CN2C(=O)[C@@H](NC(=O)C[C@H](N)c2ccccc2)CCCNC1=O` [Compound 344, H-Eby-[Orn-Hyp-hle-Trp-Nle]] (dβ3hPhg-[Orn][Hyp][d(hLeu)]W[Nle]; lactam 1-C) fall in the same range of IC50: 50 to 200 nM for the first, 50 to 200 nM for the second.

`CCCC[C@@H]1NC(=O)[C@H](Cc2ccc(F)cc2)NC(=O)[C@@H](CCC(C)C)NC(=O)[C@@H]2C[C@@H](O)CN2C(=O)[C@@H](NC(=O)[C@H](Cc2ccccc2)NC(=O)[C@@H]2CC(=O)NC(=O)N2)CCCNC1=O` [Compound 347, Hoo-Phe-[Orn-Hyp-hle-Pff-Nle]] ({Dihydroorotyl(S)}-F[Orn][Hyp][d(hLeu)][Phe(4-F)][Nle]; lactam 2-C) and `CC(C)CC[C@@H](NC(=O)[C@@H]1C[C@@H](O)CN1C(=O)[C@H](CCCN)NC(=O)[C@H](Cc1ccccc1)NC(=O)[C@@H]1CC(=O)NC(=O)N1)C(=O)N[C@@H](Cc1ccc(F)cc1)C(=O)N[C@@H](Cc1ccccc1)C(N)=O` [Compound 349, Hoo-Phe-Orn-Hyp-hle-Pff-Phe-NH2] ({Dihydroorotyl(S)}-F[Orn][Hyp][d(hLeu)][Phe(4-F)]F-NH2) fall in the same range of IC50: 50 to 200 nM for the first, 50 to 200 nM for the second.

First: CC(C)CC[C@@H](NC(=O)[C@@H]1CCCN1C(=O)[C@H](CCCNC(N)=O)NC(=O)[C@H](Cc1ccccc1)NC(=O)[C@@H]1CC(=O)NC(=O)N1)C(=O)N[C@@H](Cc1ccc(F)cc1)C(=O)N[C@@H](Cc1ccccc1)C(N)=O [Compound 348, Hoo-Phe-Cit-Pro-hle-Pff-Phe-NH2] ({Dihydroorotyl(S)}-F[Cit]P[d(hLeu)][Phe(4-F)]F-NH2)
Second: CC(C)CC[C@@H](NC(=O)[C@@H]1CCCN1C(=O)[C@H](CCCN)NC(=O)[C@H](Cc1ccccc1)NC(=O)[C@@H]1CC(=O)NC(=O)N1)C(=O)N[C@@H](Cc1ccc(F)cc1)C(=O)N[C@@H](Cc1ccccc1)C(N)=O [Compound 352, Hoo-Phe-Orn-Pro-hle-Pff-Phe-NH2] ({Dihydroorotyl(S)}-F[Orn]P[d(hLeu)][Phe(4-F)]F-NH2)
The IC50 of the first is higher: 50 to 200 nM for the first, 20 to 50 nM for the second. The second is the more potent here.

`CC(C)CC[C@@H](NC(=O)[C@@H]1CCCN1C(=O)[C@H](CCCN)NC(=O)[C@H](Cc1ccccc1)NC(=O)[C@@H]1CC(=O)NC(=O)N1)C(=O)N[C@@H](Cc1cccc(Cl)c1)C(=O)N[C@@H](Cc1ccccc1)C(N)=O` [Compound 351, Hoo-Phe-Orn-Pro-hle-Mcf-Phe-NH2] ({Dihydroorotyl(S)}-F[Orn]P[d(hLeu)][Phe(3-Cl)]F-NH2) showed an IC50 of 20 to 50 nM.
